From ChEMBL document CHEMBL4673331 (J Med Chem, 2020)
pIC50: −log10 of the molar value. In brackets after ≈: the same amount, converted by molar mass. Activity calls are given as the source filed them. The calls are words filed in the database; no cut-off is given here.

How the values were obtained:
[1] = Protein binding in rat plasma; type: ADME, cell-free; settings: read-out: PPB (converted)
[2] = test system: TMD8; test: Antitumor activity against human TMD8 cells xenografted in SCID mouse assessed as tumor stasis at 100 mg/kg, po BID administered for 2 weeks; type: functional, organism-based
[3] = Dose normalized Cmax in Sprague-Dawley rat at 3 mg/kg, po administered as cassette dosing; type: ADME, organism-based; settings: in vivo
[4] = biological target: T1, Mucosa-associated lymphoid tissue lymphoma translocation protein 1 (Homo sapiens, UniProt Q9UDY8); test: Allosteric inhibition of human wild-type […] MALT1 (329 to 824 residues) protease activity using Ac-Leu-Arg-Ser-Arg Rh110-dPro as substrate preincubated for 60 mins followed by substrate addition and measured after 60 mins by fluorescence assay
T1 sequence (Q9UDY8 whole entry): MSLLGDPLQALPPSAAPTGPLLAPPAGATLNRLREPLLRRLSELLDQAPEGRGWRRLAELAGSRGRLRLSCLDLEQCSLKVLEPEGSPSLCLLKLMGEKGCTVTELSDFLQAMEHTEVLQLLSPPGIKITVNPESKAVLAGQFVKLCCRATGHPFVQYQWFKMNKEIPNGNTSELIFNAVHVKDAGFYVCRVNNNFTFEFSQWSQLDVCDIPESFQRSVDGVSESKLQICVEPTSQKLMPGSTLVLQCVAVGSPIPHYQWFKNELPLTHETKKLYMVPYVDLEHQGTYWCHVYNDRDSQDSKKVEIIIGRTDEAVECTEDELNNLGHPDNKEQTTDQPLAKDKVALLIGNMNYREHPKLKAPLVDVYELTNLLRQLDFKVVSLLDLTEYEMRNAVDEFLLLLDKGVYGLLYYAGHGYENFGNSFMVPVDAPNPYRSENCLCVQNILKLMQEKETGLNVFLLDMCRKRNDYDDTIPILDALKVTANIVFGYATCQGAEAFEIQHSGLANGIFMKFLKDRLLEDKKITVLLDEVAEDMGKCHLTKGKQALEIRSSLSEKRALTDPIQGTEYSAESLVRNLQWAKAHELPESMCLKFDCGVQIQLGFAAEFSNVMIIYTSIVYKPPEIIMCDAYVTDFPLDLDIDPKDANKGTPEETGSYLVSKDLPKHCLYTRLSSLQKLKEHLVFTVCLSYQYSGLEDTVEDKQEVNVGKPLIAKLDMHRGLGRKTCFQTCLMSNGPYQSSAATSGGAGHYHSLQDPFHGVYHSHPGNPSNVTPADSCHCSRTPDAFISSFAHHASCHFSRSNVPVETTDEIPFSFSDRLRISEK

[5] = Protein binding in mouse plasma; type: ADME, cell-free; settings: read-out: PPB (converted)
[6] = Tmax in human TMD8 cells xenografted SCID mouse at 100 mg/kg, po qd by UPLC-MS/MS analysis; type: ADME, organism-based; settings: in vivo
[7] = Intrinsic clearance in rat liver microsomes; type: ADME, Microsome; settings: read-out: CLH
[8] = test system: BJAB; test: Antiproliferative activity against human BJAB cells assessed as assessed as reduction in colony formation at 19.5 to 10000 nM incubated for 14 days by soft-agar assay; type: functional, cell-based; settings: dose 19.5-10000 nM, time 14.0 day
[9] = test system: Mus musculus; test: Immunomodulatory activity in human TMD8 cells xenografted SCID mouse assessed as increase in levels of uncleaved BCL10 in tumor at 100 mg/kg, po; type: functional, organism-based
[10] = biological target: T2, Mucosa-associated lymphoid tissue lymphoma translocation protein 1 (Homo sapiens) (UniProt Q9UDY8); test: Allosteric inhibition of MALT1 in human OCI-LY3 cells assessed as repression of IRF4 at 50 to 5000 nM incubated for 24 hrs by Western blot analysis; type: cell-based; settings: OCILY3, filed as negative allosteric modulator, dose 50-5000 nM
T2 sequence (whole entry): T1 sequence (Q9UDY8 whole entry)

[11] = Dose normalized AUC (0 to 24 hrs) in Sprague-Dawley rat at 3 mg/kg, po administered as cassette dosing; type: ADME, organism-based; settings: in vivo
[12] = Apparent permeability across apical to basolateral side in human Caco-2 cells; type: ADME, cell-based
[13] = biological target: T2, Mucosa-associated lymphoid tissue lymphoma translocation protein 1 (Homo sapiens); test: Allosteric inhibition of MALT1 protease activity in human OCI-LY3 cells assessed as accumulation of uncleaved substrate RELB incubated for 24 hrs by Western blot analysis; type: cell-based; settings: OCILY3, filed as negative allosteric modulator, dose 50-5000 nM
[14] = Solubility of the compound at pH 6.8; type: physicochemical; settings: buffer
[15] = test system: Mus musculus; test: Anti-autoimmune disease activity in Balb/c mouse assessed as reduction in anti-DNP induced IgG producing B cells at 30 mg/kg, po administered twice at 12 hrs interval immunized post 1 hr first treatment measured after 8 days by ELISA relative to control; type: functional, organism-based; settings: time 8.0 day
[16] = test system: BJAB; test: Antiproliferation activity against human BJAB cells assessed as reduction in cell viability incubated for 14 days by resazurin dye-based fluorescence analysis; type: functional; settings: 336 h
[17] = Permeability of compound by PAMPA assay; type: ADME
[18] = Volume of distribution at steady state in Balb/c mouse at 1 mg/kg, iv administered as cassette dosing; type: ADME, organism-based; settings: in vivo, read-out: Vdss
[19] = biological target: T1, Mucosa-associated lymphoid tissue lymphoma translocation protein 1; test: Allosteric inhibition of MALT1-mediated T cell activation in human Jurkat cells assessed as decrease in PMA induced IL2 activation preincubated for 1 hr followed by addition of PMA measured after 5.5 hrs by luciferase reporter gene assay; type: cell-based
[20] = Drug concentration in Balb/c mouse blood at 30 mg/kg, po BID by LC-MS/MS analysis; type: ADME, organism-based; settings: in vivo, read-out: Drug uptake
[21] = Half-life in Balb/c mouse at 1 mg/kg, iv administered as cassette dosing; type: ADME, organism-based; settings: in vivo
[22] = Oral bioavailability in Sprague-Dawley rat at 3 mg/kg administered as cassette dosing; type: ADME, organism-based; settings: in vivo
[23] = Thermodynamic solubility of the compound at pH 6.8; type: physicochemical; settings: buffer, read-out: Therm_solubility
[24] = test system: Mus musculus; test: Immunomodulatory activity in human TMD8 cells xenografted SCID mouse assessed as decrease in IL-10 production in tumor at 100 mg/kg, po; type: functional, organism-based
[25] = test system: Mus musculus; test: Anti-autoimmune disease activity in Balb/c mouse assessed as reduction in anti-DNP induced IgM producing B cells at 30 mg/kg, po administered twice at 12 hrs interval immunized post 1 hr first treatment measured after 8 days by ELISA relative to control; type: functional; parameters: scale not given: the % may be the effect or the level left; settings: time 8 day
[26] = Inhibition of mixed lymphocyte reaction in human PBMC cells assessed as reduction in [3H]-thymidine incorporation measured after 5 days in presence of Il-7 by microbeta counting method; type: functional, cell-based
[27] = Toxicity in Balb/c mouse assessed as change in body weight at 10 to 100 mg/kg, po BID administered at 12 hrs interval immunized post 1 hr first treatment; type: organism-based; settings: in vivo, dose 10-100 mg/kg
[28] = Drug concentration in Balb/c mouse blood at 100 mg/kg, po BID administered at 12 hrs interval immunized post 1 hr first treatment measured after 12 hrs post second dose by LC-MS/MS analysis; type: ADME, organism-based; settings: whole blood, read-out: Drug uptake
[29] = Oral bioavailability in Balb/c mouse at 3 mg/kg administered as cassette dosing; type: ADME, organism-based; settings: in vivo
[30] = Toxicity in Balb/c mouse assessed as behavioral changes at 10 to 100 mg/kg, po BID administered at 12 hrs interval immunized post 1 hr first treatment; type: organism-based; settings: in vivo, dose 10-100 mg/kg
[31] = Drug concentration in Balb/c mouse blood at 10 mg/kg, po BID by LC-MS/MS analysis; type: ADME, organism-based; settings: in vivo, read-out: Drug uptake

C[C@H]1COC[C@H](C)N1c1c(NC(=O)Nc2ccnc(C(F)(F)F)c2)cnc2cc(Cl)nn12
fraction unbound [1]: 0.013 | Activity [2]: Active | Cmax/dose [3]: 46 nM | pIC50 [4]: 8.05 | fraction unbound [5]: 0.011 | Tmax [6]: 2 h | microsomal CLint [7]: 42 µL/min/mg | Activity [8]: inactive | Activity [9]: Active | inhibition [10]: Active | AUC/dose [11]: 547 nM·h | Papp A→B [12]: 1.47 ×10⁻⁶ cm/s | inhibition [13]: Dose-dependent effect | solubility [14]: 266 µM (≈ 125 µg/mL) | Activity [15]: Active | pIC50 [16]: 5.70 | log(permeability) [17]: -4.2 | Vd [18]: 1.5 L/kg | pIC50 [19]: 6.74 | concentration [20]: 9300 nM | half-life [21]: 1.9 h | bioavailability [22]: 61% | solubility thermodynamic [23]: 4 µg/mL (≈ 8.51 µM) | Activity [24]: Active | Activity [25]: 25% | pIC50 [26]: 6.72 | Activity [27]: Non-Toxic | concentration at 12 h [28]: 690 nM | bioavailability [29]: 99% | Activity [30]: Non-Toxic | concentration [31]: 2600 nM
